In patent US7655629B2, “Peptides and their use for the treatment of HIV infections” (priority 2002, dated 2010):
Several values for one entry are separate records, joined by “and”; a condition that tells them apart may be missing. Equal entries are not always repeated. Entries after “also recorded” stand apart in the source; their conditions may differ. Where two headings read alike, the source gives them in different places. Positions of bridges follow the written chain, without caps; N, C: chain ends. Non-standard residues stand in square brackets, D forms with d. Residues, ends and D or L forms follow the SMILES beside them. No end group written: not given here. ξ: configuration not given here. Oic(3aξ,7aξ) = O=C(O)[C@@H]1CC2CCCCC2N1; NMeL = CN[C@@H](CC(C)C)C(=O)O

Experiments:
HIV-1 NL4-3 DTV = details: read-out: IC50 DTV, P4-CCR5 cells, peptide 2 h before infection, readout three days after infection
Outline: (§1)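 P4-CCR5 cells (CD4, CCR5, CXCR4, HIV-1 promoter-driven β-galactosidase) pretreated 2 h with peptide, then infected with virus containing 1 ng p24 antigen and incubated overnight. Cells washed and cultured without peptide; three days post-infection infectivity read by chemiluminescent β-galactosidase assay, in quintuplicate.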

X4-tropic HIV-1 NL4-3 = details: read-out: IC50 NL4-3; P4-CCR5 cells, HIV-1 NL4-3, peptide 2 h before infection, readout three days after infection
Outline: as §1

[1] = Acute toxicity in mice after a single intravenous injection; type: in vivo, SCID-C.B 17-mice; details: 927 mg per kg body weight
Description: Acute toxicity was evaluated with VIR-121 (LEAIPMSIPpEVAFNkPFVF) after a single intravenous injection into the tail vein of SCID-C.B 17-mice. A dose of 927 mg VIR-121 (SEQ ID NO. 2) dissolved in 13.6 ml 0.9 volume % sodium chloride solution per kg body weight (equivalent to 20.4 mg or 272 μL per mouse) was applied. Injection speed was dose within 15 seconds. […] As a control, 3 mice were each treated with a corresponding volume of vehicle (0.9 volume % NaCl). After 24 hours, the animals were sacrificed, dissected and inspected macroscopically. […] No findings were obtained from macroscopic necropsy compared to the control group.

[2] = system: human monocytic THP-1 cells; test: Cytotoxicity on human cells, WST-1 assay; details: 24 hours, 30, 100, 300 and 1000 μg/mL
Description: The cytotoxicity of peptides of the invention was tested by evaluating the viability of human monocytic THP-1 cells. Cytotoxic effects of the peptides were tested by their influence on metabolic activity by means of the WST-1 assay (Roche Diagnostics, Germany). THP-1 cells were incubated with test peptides in a 96-well plate (approx. 25,000 cells per well) for 24 hours in RPMI-1640 medium containing 25 mM L-glutamine and 10 volume % fetal calf serum at 37° C. in an atmosphere with 5 volume % CO2. Ten μl of a WST-1 solution was added to each cavity, and incubation of THP-1 cells was allowed for 2 further hours at corresponding conditions. Metabolically active THP-1 cells reduce WST-1, a light red tetrazolium salt, yielding a soluble yellow formazan salt. The amount of reduced WST-1 correlates directly to the number of living cells, and is measured photometrically at a wavelength of λ=450 nm using a microtiter plate reader (reference wavelength is 630 nm). As a positive control, the known cytotoxic substance cycloheximide was used at a concentration of 50 μg/ml; the cytotoxicity of cycloheximide was set to 100%. […] The cytotoxicity of VIRIP peptides was calculated using the formula Viability [%]=[A450 nm (peptide)−A450 nm (cycloheximide)]/[A450 nm (negative control)−A450 nm (cycloheximide)]*100 and was correlated to the averaged viability of untreated THP-1 cells. […]

[3] = target: T1, synthetic fusion peptide of HIV gp41 (Human immunodeficiency virus type 1 group M subtype B, UniProt P04578); test: Inhibition of fusion peptide-induced hemolysis; type: cell-based; details: peptides at 1000, 100 and 10 μM preincubated with 100 μM fusion peptide, human erythrocytes, hemoglobin release
T1 construct: The fusion peptide is the very amino-terminal part of gp41 consisting of about 30 amino acid residues
Description: The synthetic fusion peptide of HIV gp41 causes concentration-dependent hemolysis which can be measured by hemoglobin released by erythrocytes.
Peptides and any other substance binding to the fusion peptide impair its potency to lyse erythrocytes by changing its structural properties. The inhibition of fusion peptide induced hemolysis was tested as follows: Blood from healthy donors was collected in citrate monovettes and the erythrocytes were extracted by a standard centrifugation and washing protocol known to the skilled person. The final erythrocyte-containing pellett was diluted 1:100 with phosphate-saline buffer. To the peptides (10, 100, or 1000 equivalents) 20 μl of a 100 μM fusion peptide solution in 10% DMSO were added and the solution was diluted to 100 μl with phosphate-buffered saline. A 60 min incubation at 37° C. was carried out. After the preincubation the samples were transferred to 96-well plates and 100 μl of the erythrocyte suspension were added and incubated for 60 min at 37° C. […] The 96-well plate is centrifuged 5 min at 2800 rpm and of the supernatant fluid 150 μl were transferred to a flat-bottom microtiter plate, and the absorbance was measured at 450 nm. The percentage hemolysis was calculated by: [(A450 of the peptide treated sample—A450 of buffer treated sample)/(A450 of Tween-20 treated sample—A450 of buffer treated sample)]×100%.

[4] = rat, plasma
Description: (§2) Plasma was spiked resulting in concentrations of 40 μg/ml and stored at 37° C. At time points 0, 15, 30, 45, 60, 120, 180, 240 and 300 min samples of 20 μl were taken. The plasma was immediately mixed for precipitation with the two-fold volume of acetonitrile containing 0.15% (w/v) n-nonyl-β-D-glucopyranoside. Following centrifugation the supernatants were mixed with the two-fold volume of 0.1% (v/v) trifluroacetic acid. Twenty μl of these solutions were analyzed by LC-MS. Chromatography was performed using a gradient with the following eluents: eluent A: water containing 0.06% trifluroacetic acid (v/v), eluent B: acetonitrile/water 80:20 (v/v; with 0.05% trifluoroacetic acid; v/v). A C18 precolumn was used in combination with a C18 separation column (300 Å, 5 μm, 150×1 mm inner diameter) at a flow rate of 30 μl/min. HPLC eluates were ionized by the electrospray technique of a LCQ classic mass spectrometer. Areas of the detected peaks of the peptides of the present invention were measured and used for quantification by external calibration. The calibration curve was linear over a range from 0.5 μg/ml to 250 μg/ml plasma. Half life—defined as the period for a concentration decrease to 50% of the initial concentration—was calculated from the slope of an extrapolated curve plotting the relative peptide concentration at a given time point (logarithm scale) against the incubation time. These experiments allowed the quantitative analysis of peptide concentration in plasma.

[5] = human, plasma
Description: as §2

[6] = dog, plasma
Description: as §2

[7] = cynomolgus monkey, plasma
Description: as §2

[8] = target: gp41 of HIV-1 NL4-3 DTV (HIV-1 NL4-3 DTV); test: cell-based or functional assay
[9] = target: gp41 of HIV-1 NL4-3 (HIV-1 NL4-3); test: cell-based or functional assay

Molecule | IC50 (HIV-1 NL4-3 DTV) | IC50 (X4-tropic HIV-1 NL4-3) [nM] | inhibition of fusion peptide-induced hemolysis [3] | IC50 DTV (HIV-1 infection of P4-CCR5 cells) [8] [nM] | IC50 NL4-3 (HIV-1 infection of P4-CCR5 cells) [9] [nM] | further results
CC[C@H](C)[C@H](NC(=O)[C@H](C)NC(=O)[C@H](CCC(=O)O)NC(=O)[C@@H](N)CC(C)C)C(=O)N1CCC[C@H]1C(=O)N[C@@H](CCSC)C(=O)N[C@@H](CO)C(=O)N[C@H](C(=O)N1CCC[C@H]1C(=O)N1CCC[C@@H]1C(=O)N[C@@H](CCC(=O)O)C(=O)N[C@H](C(=O)N[C@@H](C)C(=O)N[C@@H](Cc1ccccc1)C(=O)N[C@@H](CC(N)=O)C(=O)N[C@@H](CCCCN)C(=O)N1CCC[C@H]1C(=O)N[C@@H](Cc1ccccc1)C(=O)N[C@H](C(=O)N[C@@H](Cc1ccccc1)C(=O)O)C(C)C)C(C)C)[C@@H](C)CC [VIR-121, LEAIPMSIPpEVAFNKPFVF] (H-LEAIPMSIP[dP]EVAFNKPFVF-OH) | 1790 nM | 370 | – | – | – | changes of behaviour ([1]; 24 hours observation): No changes of behaviour; macroscopic necropsy / pathological examination ([1]; sacrificed after 24 hours): did not reveal any abnormalities; also recorded: No findings; clinical signs (motility, dyspnea, ataxia, muscle tone) ([1]; tail vein, 24 hours observation): no signs of reduced or increased motility, dyspnea, ataxia, nor a reduced or increased muscle tone
CC[C@H](C)[C@H](NC(=O)[C@H](C)NC(=O)[C@H](CCC(=O)O)NC(=O)[C@@H](N)CC(C)C)C(=O)N1CCC[C@H]1C(=O)N[C@H]1CSSC[C@@H](C(=O)N[C@@H](Cc2ccccc2)C(=O)N[C@@H](C)C(=O)N[C@@H](Cc2ccccc2)C(=O)N[C@@H](CC(N)=O)C(=O)N[C@@H](CCCCN)C(=O)N2CCC[C@H]2C(=O)N[C@@H](Cc2ccccc2)C(=O)N[C@H](C(=O)N[C@@H](Cc2ccccc2)C(=O)O)C(C)C)NC(=O)[C@@H]2CCCN2C(=O)[C@@H]2CCCN2C(=O)[C@H]([C@@H](C)CC)NC(=O)[C@H](CO)NC1=O [VIR-165] | 140 nM | – | Dose dependent inhibition | – | – | cytotoxic effect on THP-1 cells [2]: free of any cytotoxic effect; also recorded: did not exhibit a cytotoxic effect
CC[C@H](C)[C@H](NC(=O)[C@H](C)NC(=O)[C@H](CCC(=O)O)NC(=O)[C@@H](N)CC(C)C)C(=O)N1CCC[C@H]1C(=O)N[C@H]1CSSC[C@@H](C(=O)N[C@H](C(=O)N[C@@H](Cc2ccccc2)C(=O)N[C@@H](Cc2ccccc2)C(=O)N[C@@H](CC(N)=O)C(=O)N[C@@H](CCCCN)C(=O)N2CCC[C@H]2C(=O)N[C@@H](Cc2ccccc2)C(=O)N[C@H](C(=O)N[C@@H](Cc2ccccc2)C(=O)O)C(C)C)C(C)C)NC(=O)[C@@H]2CCCN2C(=O)[C@@H]2CCCN2C(=O)[C@H]([C@@H](C)CC)NC(=O)[C@H](CO)NC1=O [VIR-164] (H-LEAIPCSIPPCVFFNKPFVF-OH; disulfide 6-11) | 370 nM | 340 | Dose dependent inhibition | – | – | cytotoxic effect on THP-1 cells [2]: free of any cytotoxic effect; also recorded: did not exhibit a cytotoxic effect
H-LEAIPMSIPPEFLFGKPFVF-OH [VIR-175] | 300 nM | 225 | Dose dependent inhibition | – | – | half-life [4]: 0.2 h; half-life [5]: 5.3 h; half-life [6]: 17.3 h; half-life [7]: 3 h
H-LEAIPMSIPPEVKFNKPFVF-OH [VIRIP, reference compound] | 22000 nM and 22200 nM | 15000 | Dose dependent inhibition | – | – | half-life [4]: 1.7 h; half-life [5]: 53.7 h; half-life [6]: 35.9 h; half-life [7]: 5.1 h
VIR-576 (peptide) | – | – | – | 296 | 107 | –
CC[C@H](C)[C@H](NC(=O)[C@H](C)NC(=O)[C@H](CCC(=O)O)NC(=O)[C@@H](N)CC(C)C)C(=O)N1CCC[C@H]1C(=O)N[C@@H](CCSC)C(=O)N[C@@H](CO)C(=O)N[C@H](C(=O)N1CCC[C@H]1C(=O)N1CCC[C@@H]1C(=O)N[C@@H](CCC(=O)O)C(=O)N[C@H](C(=O)N[C@@H](C)C(=O)N[C@@H](Cc1ccccc1)C(=O)N[C@@H](CC(N)=O)C(=O)N[C@@H](CCCCN)C(=O)N1C2CCCCC2C[C@H]1C(=O)N[C@@H](Cc1ccccc1)C(=O)N[C@H](C(=O)N[C@@H](Cc1ccccc1)C(=O)O)C(C)C)C(C)C)[C@@H](C)CC (some centres unmarked) [VIR-269, LEAIPMSIPpEVAFNK(Oic)FVF] (H-LEAIPMSIP[dP]EVAFNK[Oic(3aξ,7aξ)]FVF-OH) | 900 nM | 2610 | Dose dependent inhibition | – | – | –
VIRIP (peptide) | – | – | – | 22200 | 15000 | –
[NMeL]EAIPMSIPPEFLFGKPFVF [VIR-512] | – | – | – | 615 | 138 | –
